Test results published in US6737383B1, “Herbicidal oxadiazolidines” (priority 1999, dated 2004).

Legend:
bamyardgrass = assay: Test B flood test barnyardgrass; assay type: in vivo, Echinochloa crus-galli; conditions: for Plant response rating, Barnyardgrass (0 to 10 scale, 0 is no effect, 10 is complete control): Rate 62 g/ha, Pre-emergence; for Plant response rating, Barnyardgrass (0 to 10 scale, 0 is no effect, 10 is complete control) / Barnyardgrass plant response rating (0 to 10 scale, 0 is no effect, 10 is complete control): flood test species, visual evaluation after twelve to sixteen days; for Barnyardgrass plant response rating (0 to 10 scale, 0 is no effect, 10 is complete control): Rate 125 g/ha, under heading Pre-emergence
How it was run: (§1)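 Each value is a visual injury score relative to controls, with 10 meaning complete control and 0 no effect. Evaluation took place twelve to sixteen days after the 2-leaf-stage plants were treated and kept in the greenhouse.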

smallflower flatsedge = assay: Test B flood test smallflower flatsedge; assay type: in vivo, Cyperus difformis; conditions: for Plant response rating, S. Flatsedge (0 to 10 scale, 0 is no effect, 10 is complete control): Rate 62 g/ha, Pre-emergence; for Plant response rating, S. Flatsedge (0 to 10 scale, 0 is no effect, 10 is complete control) / S. Flatsedge plant response rating (0 to 10 scale, 0 is no effect, 10 is complete control): flood test species, visual evaluation after twelve to sixteen days; for S. Flatsedge plant response rating (0 to 10 scale, 0 is no effect, 10 is complete control): Rate 125 g/ha, under heading Pre-emergence
How it was run: as §1

blackgrass = assay: Test B pre/postemergence blackgrass; assay type: in vivo, Alopecurus myosuroides
How it was run: (§2)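 Response is a visual 0-to-10 score relative to untreated plants, where 0 means no effect and 10 means complete control, taken twelve to sixteen days after application. Treatments went onto soil at planting and onto foliage of 1- to 4-leaf plants, using a surfactant-containing non-phytotoxic solvent.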

rice = assay: Test B flood test rice; assay type: in vivo, Oryza sativa; conditions: for Plant response rating, Rice (0 to 10 scale, 0 is no effect, 10 is complete control): Rate 62 g/ha, Pre-emergence; for Plant response rating, Rice (0 to 10 scale, 0 is no effect, 10 is complete control) / Rice plant response rating (0 to 10 scale, 0 is no effect, 10 is complete control): flood test species, visual evaluation after twelve to sixteen days; for Rice plant response rating (0 to 10 scale, 0 is no effect, 10 is complete control): Rate 125 g/ha, under heading Pre-emergence
How it was run: as §1

wild oat = assay: Test B pre/postemergence wild oat; assay type: in vivo, Avena fatua
How it was run: as §2

[1] = Rate 250 g/ha, Pre-emergence (flood test species), scale 0 to 10, 0 is no effect, 10 is complete control
[2] = Rate 500 g/ha, Pre-emergence section of Table B, 0 to 10 scale (0 no effect, 10 complete control)
[3] = Postemergence, Rate 62 g/ha, scale 0 to 10, 0 is no effect, 10 is complete control
[4] = Postemergence, Rate 125 g/ha, scale of 0 to 10 where 0 is no effect and 10 is complete control
[5] = Postemergence, Rate 250 g/ha, scale of 0 to 10, 0 is no effect, 10 is complete control
[6] = Preemergence, Rate 62 g/ha, scale of 0 to 10 where 0 is no effect and 10 is complete control
[7] = Preemergence, Rate 125 g/ha, scale of 0 to 10 where 0 is no effect and 10 is complete control
[8] = Preemergence, Rate 250 g/ha, scale 0 to 10 (0 no effect, 10 complete control)
[9] = Preemergence, Rate 500 g/ha, scale of 0 to 10 where 0 is no effect and 10 is complete control
[10] = Rate 500 g/ha, Postemergence, scale 0 to 10, 0 is no effect, 10 is complete control

| SMILES | Plant response rating, Barnyardgrass (0 to 10 scale, 0 is no effect, 10 is complete control) (bamyardgrass) | Barnyardgrass plant response rating (0 to 10 scale, 0 is no effect, 10 is complete control) (bamyardgrass) | Barnyardgrass plant response rating (bamyardgrass; [1]) | Barnyardgrass plant response rating (bamyardgrass; [2]) | Plant response rating, S. Flatsedge (0 to 10 scale, 0 is no effect, 10 is complete control) (smallflower flatsedge) | S. Flatsedge plant response rating (0 to 10 scale, 0 is no effect, 10 is complete control) (smallflower flatsedge) | S. Flatsedge plant response rating (smallflower flatsedge; [1]) | S. Flatsedge plant response rating (smallflower flatsedge; [2]) | Plant response rating, Blackgrass (blackgrass; [3]) | Blackgrass plant response rating (blackgrass; [5]) | Blackgrass plant response rating (blackgrass; [6]) | Blackgrass plant response rating (blackgrass; [7]) | Plant response rating, Blackgrass (blackgrass; [8]) | Plant response rating, Blackgrass (blackgrass; [9]) | Plant response rating, Rice (0 to 10 scale, 0 is no effect, 10 is complete control) (rice) | Rice plant response rating (0 to 10 scale, 0 is no effect, 10 is complete control) (rice) | Rice plant response rating (rice; [1]) | Rice plant response rating (rice; [2]) | Plant response rating, Wild oats (wild oat; [3]) | Wild oats plant response rating (wild oat; [6]) | further results |
| --- | --- | --- | --- | --- | --- | --- | --- | --- | --- | --- | --- | --- | --- | --- | --- | --- | --- | --- | --- | --- | --- |
| C=C(Cl)Cn1c(=O)on(C(=O)N(c2ccc(F)cc2F)C(C)C)c1=O [Compound 634] | 0 | 0 | 0 | 0 | 0 | 0 | 0 | 0 | 2 | 8 | 4 | 6 | 8 | 9 | 0 | 0 | 0 | 0 | 0 | 2 | Plant response rating, Blackgrass (blackgrass; [4]): 6; Plant response rating, Blackgrass (blackgrass; Postemergence, Rate 500 g/ha, scale of 0 to 10 where 0 is no effect and 10 is complete control): 8; Plant response rating, Wild oats (wild oat; [4]): 0; Wild oats plant response rating (wild oat; [5]): 0; Wild oats plant response rating (wild oat; [7]): 5; Plant response rating, Wild oats (wild oat; [8]): 5; Plant response rating, Wild oats (wild oat; [9]): 7 |
| C=C(Cc1ccccc1)Cn1c(=O)on(C(=O)N(c2ccccc2)C(C)C)c1=O [Compound 650] | 0 | 0 | 0 | 0 | 0 | 0 | 0 | 0 | 0 | 0 | 0 | 0 | 0 | 3 | 0 | 0 | 0 | 0 | 0 | 0 | Blackgrass plant response rating (blackgrass; [4]): 0; Blackgrass plant response rating (blackgrass; [10]): 3; Wild oats plant response rating (wild oat; [4]): 0; Wild oats plant response rating (wild oat; [7]): 0; Plant response rating, Wild oats (wild oat; [8]): 0; Plant response rating, Wild oats (wild oat; [9]): 0; Wild oats plant response rating (wild oat; [10]): 0 |
| CC(C)N(C(=O)n1oc(=O)n(CC2CCCCO2)c1=O)c1ccccc1 (stereo not drawn) [Compound 659] | 0 | 2 | 2 | 7 | 0 | 0 | 0 | 5 | 1 | 7 | 3 | 6 | 7 | 9 | 0 | 0 | 0 | 0 | 0 | 0 | Blackgrass plant response rating (blackgrass; [4]): 6; Blackgrass plant response rating (blackgrass; [10]): 7; Wild oats plant response rating (wild oat; [4]): 0; Wild oats plant response rating (wild oat; [7]): 0; Plant response rating, Wild oats (wild oat; [8]): 3; Plant response rating, Wild oats (wild oat; [9]): 9; Wild oats plant response rating (wild oat; [10]): 3 |
| CC(C)N(C(=O)n1oc(=O)n(CC2CCCCO2)c1=O)c1ccc(Cl)cc1 (stereo not drawn) [Compound 660] | 0 | 0 | 0 | 0 | 0 | 0 | 0 | 0 | 0 | 3 | 0 | 4 | 6 | 7 | 0 | 0 | 0 | 0 | 0 | 0 | Blackgrass plant response rating (blackgrass; [4]): 0; Blackgrass plant response rating (blackgrass; [10]): 6; Wild oats plant response rating (wild oat; [4]): 0; Wild oats plant response rating (wild oat; [7]): 0; Plant response rating, Wild oats (wild oat; [8]): 2; Plant response rating, Wild oats (wild oat; [9]): 3; Wild oats plant response rating (wild oat; [10]): 0 |
| CC[C@H](C)n1c(=O)on(C(=O)N(c2ccc(Cl)cc2)C(C)C)c1=O [Compound 664] | 0 | 0 | 0 | 0 | 0 | 0 | 0 | 0 | 4 | 9 | 5 | 6 | 6 | 8 | 0 | 0 | 0 | 0 | 0 | 0 | Blackgrass plant response rating (blackgrass; [4]): 7; Blackgrass plant response rating (blackgrass; [10]): 9; Wild oats plant response rating (wild oat; [4]): 0; Wild oats plant response rating (wild oat; [7]): 3; Plant response rating, Wild oats (wild oat; [8]): 3; Plant response rating, Wild oats (wild oat; [9]): 7; Wild oats plant response rating (wild oat; [10]): 7 |
| CC[C@H](C)n1c(=O)on(C(=O)N(c2ccc(F)cc2F)C(C)C)c1=O [Compound 666] | 0 | 0 | 0 | 5 | 0 | 0 | 0 | 0 | 6 | 8 | 6 | 8 | 9 | 10 | 0 | 0 | 0 | 0 | 0 | 5 | Blackgrass plant response rating (blackgrass; [4]): 8; Blackgrass plant response rating (blackgrass; [10]): 8; Wild oats plant response rating (wild oat; [4]): 0; Wild oats plant response rating (wild oat; [7]): 6; Plant response rating, Wild oats (wild oat; [8]): 9; Plant response rating, Wild oats (wild oat; [9]): 9; Wild oats plant response rating (wild oat; [10]): 3 |
